Consider nine molecules from patent US20110003314A1, “Hapten, Immunogens and Derivatives of Ascomycin Useful for Preparation of Antibodies and Immunoassays” (MICROGENICS CORPORATION, priority 2004, published 2011).

Assay [1] concerns monoclonal antibody produced by hybridoma line 28E2. Put plainly: CEDIA tacrolimus assay specificity (cross-reactivity). It is filed as binding, mice. Conditions: for Concentration Measured: added to whole blood, concentration tested 20 ng/ml. How it is done:
Antibodies obtained using any of the aforementioned techniques are screened or purified not only for their ability to bind specifically with tacrolimus, but also for low cross-reactivity with potential interfering substances. “Cross reactivity” is determined in a quantitative immunoassay by establishing a standard curve using known dilutions of tacrolimus or ascomycin. […] The percent (%) cross-reactivity is the measured concentration divided by the tested concentration multiplied by 100.
If tacrolimus is present in the sample, it binds to the antibody, leaving the ED portion of the competing conjugate free to restore enzyme activity upon complementation reaction with enzyme acceptor (EA) fragments in the assay reaction mixture. The active enzyme is then capable of producing a quantifiable reaction product when exposed to appropriate substrate. If drug is not present in the sample, the antibody binds to the ED-drug conjugate inhibiting association of the ED fragments with the EA fragments, thus inhibiting restoration of enzyme activity. The amount of reaction product and resultant absorbance change are proportional to the amount of drug in the sample.
Each of four naturally occurring metabolites of tacrolimus, at a concentration of approximately 20 ng/ml, was added separately to a whole blood specimen. […] The cross reactivity of the metabolites was calculated as:
(measured concentration)/20ng/ml×100%
In another experiment, commonly co-administered immunosuppressants were added to whole blood and tested for cross-reactivity.

Assay [2] deals with antibodies that bind rapamycin. To be noted: taught by Sedrani et al.; cited from earlier work.
The mark [3] stands for this setting: tacrolimus metabolites, 20 ng/ml in whole blood, (measured concentration)/20 ng/ml x 100%.
Where [4] appears, read: other immunosuppressants in whole blood, tested concentration 100,000 ng/ml.

Structures are written as SMILES.

Regarding `C=CCC1C=C(C)CC(C)CC(OC)C2OC(O)(C(=O)C(=O)N3CCCCC3C(=O)OC(C(C)=CC3CCC(O)C(O)C3)C(C)C(O)CC1=O)C(C)CC2O` (stereo not drawn) [13,31-O-didemethyl-T, 13,31-O-didemethyl tacrolimus], the “Concentration Measured” value in assay [1] came to 0.57 ng/mL. Moreover, in assay [1] (setting [3]), the “% Cross-Reactivity” value turned out to be 2.9%.

In the case of `C=CCC1C=C(C)CC(C)CC(OC)C2OC(O)(C(=O)C(=O)N3CCCCC3C(=O)OC(C(C)=CC3CCC(O)C(OC)C3)C(C)C(O)CC1=O)C(C)CC2O` (stereo not drawn) [13-O-demethyl-T, 13-O-demethyl tacrolimus], the “Concentration Measured” value in assay [1] worked out at 7.5 ng/mL. In addition, the “% Cross-Reactivity” value in assay [1] (setting [3]) is given as 37.7%.

For `C=CCC1C=C(C)CC(C)CC(O)C2OC(O)(C(=O)C(=O)N3CCCCC3C(=O)OC(C(C)=CC3CCC(O)C(OC)C3)C(C)C(O)CC1=O)C(C)CC2OC` (stereo not drawn) [15-O-demethyl-T, 15-O-demethyl tacrolimus], the “Concentration Measured” value in assay [1] was found to be 0.95 ng/mL. Also, the “% Cross-Reactivity” value in assay [1] (setting [3]) worked out at 4.7%.

For the molecule `C=CCC1C=C(C)CC(C)CC(OC)C2OC(O)(C(=O)C(=O)N3CCCCC3C(=O)OC(C(C)=CC3CCC(O)C(O)C3)C(C)C(O)CC1=O)C(C)CC2OC` (stereo not drawn) [31-O-demethyl-T, 31-O-demethyl tacrolimus], the “Concentration Measured” value in assay [1] amounted to 0.98 ng/mL. The “% Cross-Reactivity” value in assay [1] (setting [3]) is on record as 4.9%.

For `C[C@]12CCC(=O)C=C1CC[C@@H]1[C@@H]2[C@@H](O)C[C@@]2(C)[C@H]1CC[C@]2(O)C(=O)CO` [Hydrocorticol], the “% Cross-Reactivity” value in assay [1] (setting [4]) came to 0.0%.

Regarding `COc1c(C)c2c(c(O)c1C/C=C(\C)CCC(=O)O)C(=O)OC2` [Mycophenolic acid], in assay [1] (setting [4]), the “% Cross-Reactivity” value came out at 0.0%.

Turning to `C[C@]12C=CC(=O)C=C1CC[C@@H]1[C@@H]2[C@@H](O)C[C@@]2(C)[C@H]1CC[C@]2(O)C(=O)CO` [Prednisolone], the “% Cross-Reactivity” value in assay [1] (setting [4]) is 0.0%.

Turning to `C[C@]12C=CC(=O)C=C1CC[C@@H]1[C@@H]2C(=O)C[C@@]2(C)[C@H]1CC[C@]2(O)C(=O)CO` [Prednisone], the “% Cross-Reactivity” value in assay [1] (setting [4]) was 0.0%.

Regarding `C=CC[C@@H]1/C=C(\C)C[C@H](C)C[C@H](OC)[C@H]2O[C@@](O)(C(=O)C(=O)N3CCCC[C@H]3C(=O)O[C@H](/C(C)=C/[C@@H]3CC[C@@H](O)[C@H](OC)C3)[C@H](C)[C@@H](O)CC1=O)[C@H](C)C[C@@H]2OC` [tacrolimus], the “cross-reactivity of rapamycin-binding antibodies” value in assay [2] is listed as “greater than 50%”. In assay [1], the “Concentration Measured” value is 20.0 ng/mL. Also, in assay [1] (setting [3]), the “% Cross-Reactivity” value is reported as 100.0%.
